# Measured values published in patent US20160052926A1, “NOVEL PYRIMIDINE AND PYRIDINE COMPOUNDS AND USAGE THEREOF” (HUTCHISON MEDIPHARMA LIMITED, priority 2013, published 2016).
# pIC50: −log10 of the molar value.
# How the values were obtained:
# [1] = molecular target: Recombinant human FGFR1 (Homo sapiens, UniProt P11362); test: Transcreener Kinase Assay of FGFR1; assay type: biochemical; conditions: read-out: FGFR1 (FP) IC50
# [2] = molecular target: Recombinant human FGFR2 (Homo sapiens, UniProt P21802); test: Transcreener Kinase Assay of FGFR2; assay type: biochemical; conditions: read-out: FGFR2 (FP) IC50
# [3] = test system: SNU-16; test: Cellular Proliferation Assay (Cell Counting Kit-8), SNU-16; assay type: cell-based; conditions: Homo sapiens, SNU-16 cells, 72 hours
# In short: (§1)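 Seeding was 30,000 (KG-1), 5,000 (SNU-16) or 1,000 (RT-112) cells per well, with compound added 24 h later. Dilutions were prepared as an 8-point series of 10 to 0.004 μM in 5% DMSO, before addition to wells.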
# [4] = molecular target: FGFR3 kinase (Homo sapiens, UniProt P22607); test: Z-Lyte Kinase Assay of FGFR3; assay type: biochemical
# In short: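 Kinase at 0.7 μg/ml with 4 μM Z-LYTE Tyr 4 peptide and ATP diluted to 300 uM (working solution, 1.33× buffer); compounds 1–0.00046 μM, 2% DMSO final. Kinase reaction and development each 1 h at RT (25-30[…]); coumarin (445 nm) and fluorescein (520 nm) emission read, inhibition from % phosphorylation.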
# [5] = test system: KG-1; test: Cellular Proliferation Assay (Cell Counting Kit-8), KG-1; assay type: cell-based; conditions: Homo sapiens, KG1 cells, 72 hours
# In short: as §1
# [6] = test system: RT-112; test: Cellular Proliferation Assay (Cell Counting Kit-8), RT-112; assay type: cell-based; conditions: Homo sapiens, RT-112 cells, 72 hours
# In short: as §1
# Sequence of Recombinant human FGFR1 (P11362 22-822): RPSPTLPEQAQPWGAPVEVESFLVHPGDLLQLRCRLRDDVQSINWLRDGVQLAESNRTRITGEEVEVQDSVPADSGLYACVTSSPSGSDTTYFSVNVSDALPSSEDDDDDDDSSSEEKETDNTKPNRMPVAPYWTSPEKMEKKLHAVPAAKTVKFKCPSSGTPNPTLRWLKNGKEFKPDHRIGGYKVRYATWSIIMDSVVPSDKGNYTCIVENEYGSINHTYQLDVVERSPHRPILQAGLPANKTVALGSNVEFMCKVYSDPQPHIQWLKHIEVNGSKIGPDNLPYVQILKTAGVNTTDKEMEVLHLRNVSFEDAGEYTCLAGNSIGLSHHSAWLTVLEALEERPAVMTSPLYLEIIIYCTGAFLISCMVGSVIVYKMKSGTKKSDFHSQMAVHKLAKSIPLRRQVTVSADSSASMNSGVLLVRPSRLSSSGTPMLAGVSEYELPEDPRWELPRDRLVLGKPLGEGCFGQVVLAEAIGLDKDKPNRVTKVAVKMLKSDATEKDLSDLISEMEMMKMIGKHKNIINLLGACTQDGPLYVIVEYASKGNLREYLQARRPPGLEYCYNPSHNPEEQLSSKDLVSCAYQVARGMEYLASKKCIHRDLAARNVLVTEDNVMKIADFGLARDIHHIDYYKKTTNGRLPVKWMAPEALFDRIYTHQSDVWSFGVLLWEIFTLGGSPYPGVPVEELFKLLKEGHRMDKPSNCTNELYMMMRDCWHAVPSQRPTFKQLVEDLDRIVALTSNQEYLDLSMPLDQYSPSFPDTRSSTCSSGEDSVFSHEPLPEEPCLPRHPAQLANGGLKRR
# Sequence of FGFR3 kinase (P22607 23-806): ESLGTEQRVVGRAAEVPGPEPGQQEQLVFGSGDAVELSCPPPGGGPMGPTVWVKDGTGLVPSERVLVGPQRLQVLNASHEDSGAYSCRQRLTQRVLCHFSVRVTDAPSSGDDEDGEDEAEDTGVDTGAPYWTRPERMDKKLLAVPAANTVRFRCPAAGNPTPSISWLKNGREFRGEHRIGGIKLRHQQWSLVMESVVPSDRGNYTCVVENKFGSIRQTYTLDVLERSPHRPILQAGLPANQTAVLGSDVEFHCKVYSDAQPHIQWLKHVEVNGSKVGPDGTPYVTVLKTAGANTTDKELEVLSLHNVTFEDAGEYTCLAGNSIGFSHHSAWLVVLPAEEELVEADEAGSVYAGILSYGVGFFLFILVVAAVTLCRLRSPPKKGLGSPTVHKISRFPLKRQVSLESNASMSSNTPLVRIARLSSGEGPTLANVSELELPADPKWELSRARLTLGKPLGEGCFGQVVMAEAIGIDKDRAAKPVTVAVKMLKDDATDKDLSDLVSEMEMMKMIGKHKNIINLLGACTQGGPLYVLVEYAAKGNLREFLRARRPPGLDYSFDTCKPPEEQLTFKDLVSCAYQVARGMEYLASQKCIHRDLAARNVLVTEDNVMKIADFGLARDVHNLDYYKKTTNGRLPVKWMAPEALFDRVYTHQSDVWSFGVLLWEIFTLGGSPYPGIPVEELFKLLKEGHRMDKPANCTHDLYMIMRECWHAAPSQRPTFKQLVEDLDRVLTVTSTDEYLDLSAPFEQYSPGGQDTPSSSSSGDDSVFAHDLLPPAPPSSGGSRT
# Sequence of Recombinant human FGFR2 (P21802 22-821): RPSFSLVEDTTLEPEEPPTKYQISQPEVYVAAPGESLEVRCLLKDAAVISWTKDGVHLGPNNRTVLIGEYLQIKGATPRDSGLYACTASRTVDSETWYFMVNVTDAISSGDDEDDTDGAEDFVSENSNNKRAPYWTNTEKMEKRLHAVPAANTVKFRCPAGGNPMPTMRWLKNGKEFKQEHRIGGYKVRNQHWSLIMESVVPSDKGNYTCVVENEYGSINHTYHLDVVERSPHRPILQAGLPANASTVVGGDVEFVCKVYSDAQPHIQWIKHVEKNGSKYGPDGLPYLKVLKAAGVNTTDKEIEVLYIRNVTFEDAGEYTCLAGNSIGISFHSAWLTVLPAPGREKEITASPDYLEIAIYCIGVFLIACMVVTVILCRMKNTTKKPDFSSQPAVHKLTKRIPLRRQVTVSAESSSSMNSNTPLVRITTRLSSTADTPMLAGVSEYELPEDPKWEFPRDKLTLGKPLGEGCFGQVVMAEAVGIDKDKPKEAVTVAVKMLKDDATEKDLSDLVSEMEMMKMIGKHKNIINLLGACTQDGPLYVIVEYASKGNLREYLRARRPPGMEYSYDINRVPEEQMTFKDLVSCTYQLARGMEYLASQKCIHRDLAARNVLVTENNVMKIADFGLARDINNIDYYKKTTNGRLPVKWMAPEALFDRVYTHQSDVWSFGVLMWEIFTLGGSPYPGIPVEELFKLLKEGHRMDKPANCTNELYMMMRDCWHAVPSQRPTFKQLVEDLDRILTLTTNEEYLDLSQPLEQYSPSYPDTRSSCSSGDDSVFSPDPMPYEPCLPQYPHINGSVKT
compound,measurement,setting,value
CNC(=O)c1cc(CCc2cnc(Nc3ccc(N4CCNC(C)(C)C4)cc3)nc2)c(Cl)c(OC)c1 [Compound 200],pIC50,[1],8.05
same,pIC50,[2],8.22
same,pIC50,[3],7.70
same,pIC50,[4],8.22
same,pIC50,[5],7.04
same,pIC50,[6],7.47
"CNC(=O)c1cc(CCc2cnc(Nc3ccc(N4C[C@@H](C)N[C@@H](C)C4)cc3)nc2)c(Cl)c(OC)c1 [Compound 79, 4-chloro-3-(2-(2-((4-((3S,5R)-3,5-dimethylpiperazin-1-yl)phenyl)amino)pyrimidin-5-yl)ethyl)-5-methoxy-N-methylbenzamide]",pIC50,[1],8.22
same,pIC50,[2],8.22
same,pIC50,[3],7.85
same,pIC50,[4],8.22
same,pIC50,[5],7.89
same,pIC50,[6],7.47
CCNC(=O)c1cc(COc2cnc(Nc3ccc(N4C[C@@H](C)N[C@@H](C)C4)cc3)nc2)c(F)c(OC)c1 [Compound 205],pIC50,[1],7.44
same,pIC50,[2],7.60
same,pIC50,[3],7.43
same,pIC50,[4],7.55
same,pIC50,[5],7.17
same,pIC50,[6],7.01
CNC(=O)c1cc(CCc2cnc(Nc3cnn(CC(F)(F)F)c3)nc2)c(F)c(OC)c1 [Compound 36],pIC50,[1],7.68
same,pIC50,[2],6.21
same,pIC50,[3],7.54
same,pIC50,[4],7.51
same,pIC50,[5],7.28
same,pIC50,[6],6.80
CNC(=O)c1cc(CCc2cnc(Nc3cnn(C4COC4)c3)nc2)c(F)c(OC)c1 [Compound 117],pIC50,[1],7.55
same,pIC50,[2],8.30
same,pIC50,[3],7.59
same,pIC50,[4],7.89
same,pIC50,[5],7.51
same,pIC50,[6],6.73
CNC(=O)c1cc(CCc2cnc(Nc3cnn(C4CCC4)c3)nc2)c(F)c(OC)c1 [Compound 10],pIC50,[1],7.60
same,pIC50,[2],8.30
same,pIC50,[3],7.66
same,pIC50,[4],8.10
same,pIC50,[5],7.74
same,pIC50,[6],7.54
CNC(=O)c1cc(CCc2cnc(Nc3ccc(CN4CCOCC4)cc3)nc2)c(F)c(OC)c1 [Compound 97],pIC50,[1],7.96
same,pIC50,[2],8.22
same,pIC50,[3],7.66
same,pIC50,[4],7.92
same,pIC50,[5],7.59
same,pIC50,[6],6.80
CCN1CCC[C@H](n2cc(Nc3ncc(CCc4cc(C(=O)NC)cc(OC)c4F)cn3)cn2)C1 [Compound 175],pIC50,[1],8.05
same,pIC50,[2],8.22
same,pIC50,[3],7.85
same,pIC50,[4],8.10
same,pIC50,[5],7.64
same,pIC50,[6],7.24
CNC(=O)c1cc(CCc2cnc(Nc3ccc4ncnn4c3)nc2)c(F)c(OC)c1 [Compound 95],pIC50,[1],7.47
same,pIC50,[2],7.92
same,pIC50,[3],7.48
same,pIC50,[4],7.48
same,pIC50,[5],7.36
same,pIC50,[6],7.14
CNC(=O)c1cc(CCc2cnc(Nc3cnn(C4CCCC4)c3)nc2)c(F)c(OC)c1 [Compound 122],pIC50,[1],7.85
same,pIC50,[2],8.22
same,pIC50,[3],7.89
same,pIC50,[4],8.05
same,pIC50,[5],7.70
same,pIC50,[6],7.17
CONC(=O)c1cc(CCc2cnc(Nc3ccccc3)nc2)cc(OC)c1 [Compound 22],pIC50,[1],8.05
same,pIC50,[2],8.30
same,pIC50,[3],7.59
same,pIC50,[4],7.70
same,pIC50,[5],7.55
same,pIC50,[6],7.08
CNC(=O)c1cc(CCc2cnc(Nc3cnn([C@@H]4CCOC4)c3)nc2)c(F)c(OC)c1 [Compound 123],pIC50,[1],8.05
same,pIC50,[2],8.30
same,pIC50,[3],7.74
same,pIC50,[4],7.89
same,pIC50,[5],7.59
same,pIC50,[6],6.87
CNC(=O)c1cc(CCc2cnc(Nc3ccc4nnc(COC)n4c3)nc2)c(F)c(OC)c1 [Compound 72],pIC50,[1],7.24
same,pIC50,[2],7.62
same,pIC50,[3],7.03
same,pIC50,[4],7.42
same,pIC50,[5],6.71
same,pIC50,[6],6.26
CNC(=O)c1cc(CCc2cnc(Nc3cnn(CCO)c3)nc2)c(F)c(OC)c1 [Compound 114],pIC50,[1],7.92
same,pIC50,[2],8.30
same,pIC50,[3],7.06
same,pIC50,[4],7.85
same,pIC50,[5],7.15
same,pIC50,[6],6.23
CCn1cc(Nc2ncc(CCc3c(F)c(C(=O)NC)cc(OC)c3Cl)cn2)cn1 [Compound 80],pIC50,[1],7.62
same,pIC50,[2],7.80
same,pIC50,[3],7.41
same,pIC50,[4],7.72
same,pIC50,[5],7.48
same,pIC50,[6],7.62
CCN(CC)CCCn1cc(Nc2ncc(CCc3cc(C(=O)NC)cc(OC)c3F)cn2)cn1 [Compound 13],pIC50,[1],7.54
same,pIC50,[2],8.00
same,pIC50,[3],7.68
same,pIC50,[4],8.15
same,pIC50,[5],6.30
same,pIC50,[6],7.23
CNC(=O)c1cc(CCc2cnc(Nc3ccc4c(C)n(C)nc4c3)nc2)c(F)c(OC)c1 [Compound 130],pIC50,[1],8.10
same,pIC50,[2],8.30
same,pIC50,[3],7.49
same,pIC50,[4],8.00
same,pIC50,[5],7.55
same,pIC50,[6],7.32
CNC(=O)c1cc(CCc2cnc(Nc3cnn([C@H]4CCCN(C)C4)c3)nc2)c(F)c(OC)c1 [Compound 172],pIC50,[1],8.05
same,pIC50,[2],8.22
same,pIC50,[3],7.85
same,pIC50,[4],8.22
same,pIC50,[5],7.66
same,pIC50,[6],7.19
CNC(=O)c1cc(OC)c(Cl)c(CCc2cnc(Nc3ccc(N4C[C@@H](C)N[C@@H](C)C4)cc3)nc2)c1F [Compound 91],pIC50,[1],7.70
same,pIC50,[2],7.80
same,pIC50,[3],7.72
same,pIC50,[4],7.77
same,pIC50,[5],7.49
same,pIC50,[6],7.19
CONC(=O)c1cc(CCc2cnc(Nc3ccc(N4C[C@@H](C)N[C@@H](C)C4)c(F)c3)nc2)cc(OC)c1 [Compound 54],pIC50,[1],8.22
same,pIC50,[2],8.52
same,pIC50,[3],8.00
same,pIC50,[4],8.22
same,pIC50,[5],7.74
same,pIC50,[6],7.51
CNC(=O)c1cc(COc2cnc(Nc3ccc(N4CCNCC4)cc3)nc2)c(F)c(OC)c1 [Compound 188],pIC50,[1],8.10
same,pIC50,[2],8.30
same,pIC50,[3],8.22
same,pIC50,[4],8.00
same,pIC50,[5],7.70
same,pIC50,[6],7.92
CCN1CCC[C@@H](n2cc(Nc3ncc(CCc4cc(C(=O)NC)cc(OC)c4F)cn3)cn2)C1 [Compound 174],pIC50,[1],8.00
same,pIC50,[2],8.22
same,pIC50,[3],7.77
same,pIC50,[4],8.30
same,pIC50,[5],7.40
same,pIC50,[6],7.19
CNC(=O)c1cc(CCc2cnc(Nc3cnn(CC(C)C)c3)nc2)c(F)c(OC)c1 [Compound 118],pIC50,[1],7.64
same,pIC50,[2],7.92
same,pIC50,[3],7.54
same,pIC50,[4],7.47
same,pIC50,[5],7.59
same,pIC50,[6],6.66
CNC(=O)c1cc(CCc2cnc(Nc3cnn(C[C@@H](C)O)c3)nc2)c(Cl)c(OC)c1 [Compound 150],pIC50,[1],7.82
same,pIC50,[2],8.22
same,pIC50,[3],7.48
same,pIC50,[4],8.22
same,pIC50,[5],7.51
same,pIC50,[6],7.21
CNC(=O)c1cc(COc2ccc(Nc3ccc(N4C[C@@H](C)N[C@@H](C)C4)cc3)nc2)c(F)c(OC)c1 [Compound 191],pIC50,[1],6.74
same,pIC50,[2],7.17
same,pIC50,[3],6.27
same,pIC50,[4],6.48
same,pIC50,[5],6.19
same,pIC50,[6],6.27
CCN1CCN(c2cc(Nc3ncc(CCc4cc(OC)cc(C(=O)NOC)c4)cn3)ccn2)CC1 [Compound 76],pIC50,[1],8.30
same,pIC50,[2],8.40
same,pIC50,[3],7.80
same,pIC50,[4],8.10
same,pIC50,[5],7.37
same,pIC50,[6],7.17
CNC(=O)c1cc(CCc2cnc(Nc3cccnc3OC)nc2)c(F)c(OC)c1 [Compound 63],pIC50,[1],6.71
same,pIC50,[2],7.57
same,pIC50,[3],6.38
same,pIC50,[4],6.61
same,pIC50,[5],6.37
same,pIC50,[6],6.05
CNC(=O)c1cc(CCc2cnc(Nc3cnn(CCN4CCN(C)CC4)c3)nc2)c(Cl)c(OC)c1 [Compound 89],pIC50,[1],7.92
same,pIC50,[2],8.10
same,pIC50,[3],7.54
same,pIC50,[4],8.10
same,pIC50,[5],6.89
same,pIC50,[6],7.34
CNC(=O)c1cc(CCc2cnc(Nc3cnn(C4CCC4)c3)nc2)c(Cl)c(OC)c1 [Compound 81],pIC50,[1],8.10
same,pIC50,[2],8.30
same,pIC50,[3],7.60
same,pIC50,[4],7.96
same,pIC50,[5],7.80
same,pIC50,[6],8.00
CNC(=O)c1cc(CCc2cnc(Nc3cnn(C(F)F)c3)nc2)c(F)c(OC)c1 [Compound 116],pIC50,[1],7.57
same,pIC50,[2],8.00
same,pIC50,[3],7.35
same,pIC50,[4],7.55
same,pIC50,[5],7.70
same,pIC50,[6],7.72
CNC(=O)c1cc(CCc2cnc(Nc3cccc(N4CCOCC4)c3)nc2)c(F)c(OC)c1 [Compound 38],pIC50,[1],8.10
same,pIC50,[2],8.52
same,pIC50,[3],7.52
same,pIC50,[4],7.70
same,pIC50,[5],7.55
same,pIC50,[6],7.07
CNC(=O)c1cc(CCc2cnc(Nc3ccc(N4C[C@@H](C)N[C@@H](C)C4)c(C)c3)nc2)c(Cl)c(OC)c1 [Compound 208],pIC50,[1],8.00
same,pIC50,[2],8.30
same,pIC50,[3],7.77
same,pIC50,[4],8.05
same,pIC50,[5],7.22
same,pIC50,[6],7.68
CNC(=O)c1cc(CCc2cnc(Nc3cnn(CC4(C)COC4)c3)nc2)c(F)c(OC)c1 [Compound 131],pIC50,[1],7.72
same,pIC50,[2],8.10
same,pIC50,[3],7.89
same,pIC50,[4],7.96
same,pIC50,[5],7.43
same,pIC50,[6],6.88
CNC(=O)c1cc(COc2cnc(Nc3ccc(N4C[C@@H](C)N[C@@H](C)C4)c(C)c3)nc2)c(Cl)c(OC)c1 [Compound 209],pIC50,[1],8.15
same,pIC50,[2],8.22
same,pIC50,[3],8.10
same,pIC50,[4],8.15
same,pIC50,[5],7.89
same,pIC50,[6],7.80
CNC(=O)c1cc(CCc2cnc(Nc3cnn(C4CCN(C)CC4)c3)nc2)c(Cl)c(OC)c1 [Compound 177],pIC50,[1],8.22
same,pIC50,[2],8.30
same,pIC50,[3],7.72
same,pIC50,[4],8.05
same,pIC50,[5],7.60
same,pIC50,[6],7.07
